Experimental data from BindingDB's records for doi:10.1021/acs.jmedchem.7b00315 (St. John'S University, 2018).

Experiment: Inhibition of GP2b/3a in human platelet-rich plasma assessed as reduction in collagen-induced platelet aggregation preincubated for 1 min followed by collagen addition by aggregometric analysis

Compound | IC50 [nM]
CCOC(=O)CC1CCN(C(=O)CC(CC)NC(=O)c2ccc(C(=N)N3CCSC3)cc2F)CC1 (stereo not drawn) | 50
CCOC(=O)CC1CCN(C(=O)C(C)(C)[C@H](CC)NC(=O)c2ccc(C(=N)N3CCSC3)cc2F)CC1 | 3100
CCOC(=O)CC1CCN(C(=O)C(C)(C)[C@@H](CC)NC(=O)c2ccc(C(=N)N3CCSC3)cc2F)CC1 [(1-{3-[2-Fluoro-4-(imino-thiazolidin-3-yl-methyl)-benzoylamino]-2,2-dimethyl-pentanoyl}-piperidin-4-yl)-acetic acid ethyl ester(NSL-96184)] | 22
